# Results: patent publication US4420482A, “1,4-Bis(acetylsalicyloyloxy)piperizine derivatives” (priority 1980, dated 1983)
# What was measured:
# [1] = Antipyretic activity, hyperpyrexia induced by intramuscular brewers' yeast; type: in vivo, Sprague Dawley rat; details: for antipyretic activity: equimolecular doses, S.1528 vs acetylsalicylic acid; for mean temperature decrease: half dosage
# [2] = Analgesic activity, pressure-induced pain on paw inflamed by brewers' yeast (test of Randall and Selitto); type: in vivo, Sprague Dawley rat; details: for Pain sensitivity threshold (g) of inflamed paw: mean of 1 and 2 hr, P < 0.01 vs controls; for analgesic activity: equimolecular doses, S.1528 vs acetylsalicylic acid
# Protocol: The analgesic activity of S.1528 was assessed on the sensitivity threshold of pain induced by a pressure exerted on a rat's paw inflamed by application of brewers' yeast (90 Sprague Dawley male rats with a mean bodyweight of 150 g).
# [3] = Comparative oral acute toxicity in the mouse; type: in vivo
# Description: The new derivative of acetylsalicylic acid, ie S.1528, has been showing a quite mild toxicity associated with marked anti-inflammatory, antipyretic and analgesic activities as well as with an evident anti-histaminic activity. Moreover, unlike acetylsalicylic acid, the new compound appear to be entirely devoid of any gastric injuring effect.
# [4] = Protective activity on lethal shock induced by inhaled histamine; type: in vivo, guinea-pig; details: for Protected animals: 20 guinea-pigs; for antihistaminic activity: inhaled histamine shock, guinea-pig
# Description: Table 4 points out the protective activity exerted by S.1528 versus the lethal shock induced in the guinea-pig by an inhaled histamine.
# [5] = Therapeutic index (ratio between toxic dose and active dose); type: in vivo; details: 2600:158 for S.1528; 1000:100 for acetylsalicylic acid
# [6] = Paw carrageenin edema in the rat (anti-inflammatory activity); type: in vivo, Sprague Dawley rat; details: for anti-inflammatory activity: equimolecular doses, S.1528 vs acetylsalicylic acid
# Protocol: The anti-inflammatory activity of S.1528 was assessed in the paw carrageenin edema (220 Sprague Dawley male rats with a mean bodyweight of 150 g). […] It should be noted that, in the overall context of the present patent application the term "equimolecular doses" of S.1528 indicates all those doses that contain acetylsalicylic residues in a quantity equivalent to that of acetylsalicylic acid used as reference drug.
# [7] = Gastric ulcerogenic effect in the rat; type: in vivo, Sprague Dawley rat; details: for Incidence of gastric lesions (animals with lesions versus total treated): fasted 36 hours, killed 5 hours later
smiles,measurement,setting,value
"CC(=O)Oc1ccccc1C(=O)O [Acetylsalicylic acid, acetylsalicylic acid, reference compound]",antipyretic activity,[1],quite the same antipyretic activity
same,mean temperature decrease,[1]; 75 mg/kg/os,0.4 degrees centigrades
same,Threshold percent increase vs. controls,[2]; 110 mg/kg/os,36.2%
same,Pain sensitivity threshold (g) of inflamed paw,[2]; 110 mg/kg/os,122.6 ± 7.1 g
same,Threshold percent increase vs. controls,[2]; 221 mg/kg/os,71.2%
same,Pain sensitivity threshold (g) of inflamed paw,[2]; 221 mg/kg/os,154.1 ± 5.7 g
same,analgesic activity,[2],quantitatively similar activity
same,Mortality observed (7 days),[3]; 250 mg/kg/os,0
same,Mortality observed (7 days),[3]; 500 mg/kg/os,0
same,Mortality observed (7 days),[3]; 750 mg/kg/os,4/20
same,Mortality observed (7 days),[3]; 1000 mg/kg/os,10/20
same,Mortality observed (7 days),[3]; 1250 mg/kg/os,14/20
same,Mortality observed (7 days),[3]; 1500 mg/kg/os,20/20
same,Mortality observed (7 days),[3]; 1750 mg/kg/os,10/10
same,oral LD 50,"[3]; oral, 10080 min",1000 mg/kg
same,Time of resistance,[4]; 110 mg/kg/os,66 ± 6.3 min
same,Protected animals,[4]; 110 mg/kg/os,0 animals
same,Time of resistance,[4]; 221 mg/kg/os,54 min
same,Protected animals,[4]; 221 mg/kg/os,0 animals
same,antihistaminic activity,[4],entirely devoid of any antihistaminic activity
same,therapeutic index (ratio between the toxic dose and the active dose),[5],10
same,Comparative edema decrease in the various groups of untreated control animals,"[6]; 55 mg/kg/os, P ns",-28
same,Comparative edema decrease in the various groups of untreated control animals,"[6]; 110 mg/kg/os, P <0.01",-44
same,Comparative edema decrease in the various groups of untreated control animals,"[6]; 221 mg/kg/os, P <0.01",-79
same,anti-inflammatory activity,[6],quantitatively superimposable anti-inflammatory activity
"CC(=O)Oc1ccccc1C(=O)OCCN1CCN(CCOC(=O)c2ccccc2OC(C)=O)CC1 [S.1528, 1,4-BIS-[2-(ACETYLSALICYLOYLOXY)ETHYL] PIPERAZINE]",antipyretic activity,[1],quite the same antipyretic activity
same,mean temperature decrease,[1]; 118.5 mg/kg/os,0.4 degrees centigrades
same,Threshold percent increase vs. controls,[2]; 158 mg/kg/os,41.3%
same,Pain sensitivity threshold (g) of inflamed paw,[2]; 158 mg/kg/os,127.2 ± 6.3 g
same,Threshold percent increase vs. controls,[2]; 317 mg/kg/os,69.1%
same,Pain sensitivity threshold (g) of inflamed paw,[2]; 317 mg/kg/os,152.2 ± 8.4 g
same,analgesic activity,[2],quantitatively similar activity
same,Mortality observed (7 days),[3]; 750 mg/kg/os,0/10
same,Mortality observed (7 days),[3]; 1000 mg/kg/os,0/10
same,Mortality observed (7 days),[3]; 1500 mg/kg/os,0/20
same,Mortality observed (7 days),[3]; 1750 mg/kg/os,0/20
same,Mortality observed (7 days),[3]; 2000 mg/kg/os,4/20
same,Mortality observed (7 days),[3]; 2250 mg/kg/os,5/20
same,Mortality observed (7 days),[3]; 2500 mg/kg/os,8/20
same,Mortality observed (7 days),[3]; 2750 mg/kg/os,12/20
same,Mortality observed (7 days),[3]; 3000 mg/kg/os,16/20
same,LD50 at 168 h,"[3]; in vivo, oral, read-out: oral LD 50",~2600 mg/kg
same,Percent Protection,[4]; 158 mg/kg/os,60%
same,Time of resistance,[4]; 158 mg/kg/os,523 min
same,Protected animals,[4]; 158 mg/kg/os,12 animals
same,Percent Protection,[4]; 317 mg/kg/os,100%
same,Time of resistance,[4]; 317 mg/kg/os,> 720 min
same,Protected animals,[4]; 317 mg/kg/os,20 animals
same,ED50,"[4]; Cavia porcellus, read-out: dose that protects 50 percent of the guinea-pigs from the onset of a shock due to histamine",158 mg/kg
same,antihistaminic activity,[4],evident antihistaminic activity
same,Mean number of gastric ulcerations (mm),"[7]; 158 mg/kg, os",0 mm
same,Incidence of gastric lesions (animals with lesions versus total treated),"[7]; 158 mg/kg, os",0/20
same,Mean number of gastric ulcerations (mm),"[7]; 317 mg/kg, i.p.",0 mm
same,Incidence of gastric lesions (animals with lesions versus total treated),"[7]; 317 mg/kg, i.p.",0/20
same,Mean number of gastric ulcerations (mm),"[7]; 317 mg/kg, os",0 mm
same,Incidence of gastric lesions (animals with lesions versus total treated),"[7]; 317 mg/kg, os",0/20
same,gastric injuring effect,"[7]; equimolecular doses, rat",no gastric injuring effect
same,therapeutic index (ratio between the toxic dose and the active dose),[5],16.45
same,Comparative edema decrease in the various groups of untreated control animals,"[6]; 79 mg/kg/os, P ns",-23
same,Comparative edema decrease in the various groups of untreated control animals,"[6]; 158 mg/kg/os, P <0.01",-52
same,Comparative edema decrease in the various groups of untreated control animals,"[6]; 317 mg/kg/os, P <0.01",-83
same,anti-inflammatory activity,[6],quantitatively superimposable anti-inflammatory activity
